A value given as a limit tells only on which side of the number the result lay.

Drawing on patent US6518423B1, “Benzopiperidine derivatives” (Eisai Co., Ltd., priority 1996, dated 2003), this text covers melting point for 90 molecules.

In turn, `CC(C)c1nccn1Cc1ccc2c(c1)Nc1nccnc1S2` had a melting point of 241 to 242 °C.

Regarding `O=C(c1ccccn1)c1nccn1Cc1ccc2c(c1)Nc1nccnc1S2`, the melting point fell in the range of 191 to 193 °C.

On to `c1cc(-c2cn(Cc3ccc4c(c3)Nc3nccnc3S4)cn2)ccn1`, for which the melting point was 157 to 158 °C.

`CCOC(=O)/C=C/c1nccn1Cc1ccc2c(c1)Nc1nccnc1S2` gave a melting point of 213 to 215 °C.

Take `CS(=O)(=O)NCCc1cn(Cc2ccc3c(c2)Nc2nccnc2S3)cn1`: the melting point lay within 173 to 176 °C.

Turning to `CS(=O)(=O)N=CNc1ccc(-c2cn(Cc3ccc4c(c3)Nc3nccnc3S4)cn2)cc1`, the melting point was in the range of 159 to 162 °C.

Molecule `c1cn(CCCc2ccc3c(c2)Nc2nccnc2S3)cn1` had a melting point of 139 to 141 °C.

Consider `O=c1c2ccccc2[nH]n1Cc1ccc2c(c1)Nc1nccnc1S2`, for which the melting point was greater than 275 °C.

In the case of `FC(F)(c1cccnc1)c1ccc2c(c1)Nc1nccnc1S2`, the melting point lay within 183 to 184 °C.

Molecule `O=C(O)CSc1ccc(C(O)c2ccc3c(c2)Nc2nccnc2S3)cn1` (stereo not drawn) showed a melting point of 65 to 70 °C.

As for `O=C(O)C1CC2CCC(C1)N2Cc1ccc2c(c1)Nc1nccnc1S2` (stereo not drawn), the melting point is 158 °C (dec.).

In the case of `CN1CC2CN(Cc3ccc4c(c3)Nc3nccnc3S4)CC(C1)C2CC(=O)O` (stereo not drawn), the melting point is 220 °C (dec.).

For the molecule `CC(C)(O)CC1C2CCCC1CN(Cc1ccc3c(c1)Nc1nccnc1S3)C2` (stereo not drawn), the melting point lay in the range of 182 to 185 °C.

In turn, `CC(CO)C1C2CCCC1CN(Cc1ccc3c(c1)Nc1nccnc1S3)C2` (stereo not drawn) came in with a melting point of 88 to 92 °C.

Take `COCc1ccc2c(c1)Nc1nccnc1S2`: the melting point was in the range of 189 to 192 °C.

Molecule `CS(=O)(=O)NC(=O)Cc1ccc2c(c1)Nc1nccnc1S2` returned a melting point of 236 to 238 °C.

`c1cnc2c(n1)Nc1cc(Cn3cnc4cncnc43)ccc1S2`: the melting point fell in the range of 264 to 265 °C.

Consider `c1cnc2c(n1)Nc1cc(Cn3cnc4ncncc43)ccc1S2`, for which the melting point lay within 277 to 280 °C.

In turn, `CN(C)c1ncnc2c1[nH]c(=O)n2Cc1ccc2c(c1)Nc1nccnc1S2` returned a melting point greater than 280 °C.

In turn, `Cc1nc2ncncc2n1Cc1ccc2c(c1)Nc1nccnc1S2` showed a melting point greater than 275 °C.

In turn, `O=C(O)CCCCCCCCCCSc1ncnc2ncn(Cc3ccc4c(c3)Nc3nccnc3S4)c12` returned a melting point of 166 to 170 °C.

`CCOC(=O)CCCCCSc1ncnc2c1ncn2Cc1ccc2c(c1)Nc1nccnc1S2` returned a melting point of 78 to 79 °C.

Molecule `C#CC/N=C(\N)Cc1ccc2c(c1)Nc1nccnc1S2.Cl` returned a melting point of 222 to 223 °C.

For the molecule `N/C(Cc1ccc2c(c1)Nc1nccnc1S2)=N\S(N)(=O)=O`, the melting point was > 260 °C (dec.).

In turn, `CN(C)S(=O)(=O)NC1CN=C(Cc2ccc3c(c2)Nc2nccnc2S3)NC1` (stereo not drawn) showed a melting point of 251 to 254 °C.

Consider `CC(=O)N1CCN(C(=N)Cc2ccc3c(c2)Nc2nccnc2S3)CC1.Cl`, for which the melting point was in the range of 268 to 269 °C.

For `CNC(Cc1ccc2c(c1)Nc1nccnc1S2)=NC#N`, the melting point was 233 to 234 °C (dec.).

In the case of `CCOC(=O)CCCNC(Cc1ccc2c(c1)Nc1nccnc1S2)=NC#N`, the melting point is 154 to 155 °C.

Regarding `CC(=NC#N)NCc1ccc2c(c1)Nc1nccnc1S2`, the melting point was 275 to 277 °C.

`N#CN=C(N)NCc1ccc2c(c1)Nc1nccnc1S2` gave a melting point of 246 to 248 °C.

The molecule `N/C(=N\[N+](=O)[O-])NCc1ccc2c(c1)Nc1nccnc1S2` yielded a melting point of 226 to 228 °C.

In the case of `COC(=O)CC1C2CCCC1CN(Cc1ccc3c(c1)Nc1nccnc1S3)C2` (stereo not drawn), the melting point fell in the range of 127 to 129 °C.

The molecule `OCCCCC1CCN(Cc2ccc3c(c2)Nc2nccnc2S3)CC1` registered a melting point of 132 to 135 °C.

As to `O=c1ccn(Cc2ccc3c(c2)Nc2ccncc2S3)cc1`, the melting point was 168 °C (dec.).

The molecule `NC(=O)C1CCN(Cc2ccc3c(c2)Nc2nccnc2O3)CC1` came in with a melting point of 287 to 288 °C.

Consider `O=c1ccccn1Cc1ccc2c(c1)Nc1nccnc1S2`, for which the melting point was 260 to 261 °C.

Consider `O=c1ccn(Cc2ccc3c(c2)Nc2nccnc2S3)cc1`, for which the melting point was greater than 275 °C.

Turning to `O=C1C=CN(Cc2ccc3c(c2)Nc2nccnc2S3)CC1`, the melting point lay within 233 to 235 °C.

In the case of `CS(=O)(=O)/N=C/N1CCN(Cc2ccc3c(c2)Nc2nccnc2S3)CC1`, the melting point was 212 to 214 °C.

In turn, `CNS(=O)(=O)N1CCN(Cc2ccc3c(c2)Nc2nccnc2S3)CC1` showed a melting point of 208 to 210 °C.

`CS(=O)(=O)/N=C(\N)C1CCN(Cc2ccc3c(c2)Nc2nccnc2S3)CC1` registered a melting point of 204 to 209 °C.

`CNS(=O)(=O)NC1CCN(Cc2ccc3c(c2)Nc2nccnc2O3)CC1` had a melting point of 219 to 222 °C.

`O=S(=O)(NC1CCN(Cc2ccc3c(c2)Nc2nccnc2S3)CC1)C(F)(F)F`: the melting point lay within 199 to 201 °C.

The molecule `O=C1OCCC1=C1CCN(Cc2ccc3c(c2)Nc2nccnc2S3)CC1` gave a melting point of 159 to 162 °C.

Molecule `OCC(O)C1CCN(Cc2ccc3c(c2)Nc2nccnc2S3)CC1` (stereo not drawn) gave a melting point of 182 to 185 °C.

`CON=C1CCN(Cc2ccc3c(c2)Nc2nccnc2S3)CC1`: the melting point lay within 142 to 143 °C.

Take `Nc1c(N2CCN(Cc3ccc4c(c3)Nc3nccnc3S4)CC2)c(=O)c1=O`: the melting point is 285 to 288 °C (dec.).

In turn, `OC1CC2CN(Cc3ccc4c(c3)Nc3nccnc3S4)CC2C1` (stereo not drawn) registered a melting point of 192 to 195 °C.

Take `OCCC12CCN(Cc3ccc4c(c3)Nc3nccnc3S4)CC1C2` (stereo not drawn): the melting point is 57 to 60 °C.

The molecule `c1cnc2c(n1)Nc1cc(CN3CCC3)ccc1S2` showed a melting point of 158 to 161 °C.

`c1cnc2c(n1)Nc1cc(CN3CCc4sccc4C3)ccc1S2` returned a melting point of 182 to 184 °C.

`CNS(=O)(=O)CCC1CCN(Cc2ccc3c(c2)Nc2nccnc2S3)CC1` came in with a melting point of 195 to 198 °C.

`COCN1c2cc(C(=O)OC)ccc2Sc2nccnc21`: the melting point fell in the range of 151 to 152 °C.

Regarding `O=C(CN1CCC(C(=O)O)CC1)NCc1ccc2c(c1)Nc1nccnc1S2`, the melting point was 226 to 230 °C (dec.).

`O=C(O)CC1CC(C2CCN(Cc3ccc4c(c3)Nc3nccnc3S4)CC2)C1` (stereo not drawn) had a melting point of 215 to 220 °C.

For `N#CC(CCC(=O)O)=C1CCN(Cc2ccc3c(c2)Nc2nccnc2S3)CC1`, the melting point was in the range of 114 to 116 °C.

In the case of `O=C(O)/C=C1/CCCN(Cc2ccc3c(c2)Nc2nccnc2S3)C1`, the melting point was in the range of 216 to 220 °C.

The molecule `O=C(O)C1CCN(Cc2ccc3c(c2)Nc2nccnc2O3)CC1` had a melting point of 242 to 244 °C.

`O=C(O)c1ccc(C2CCN(Cc3ccc4c(c3)Nc3nccnc3S4)CC2)cc1`: the melting point was 265 to 268 °C.

As to `COc1ccc(C2CCN(Cc3ccc4c(c3)Nc3nccnc3S4)CC2)cc1CC(=O)O`, the melting point is 174 to 176 °C.

As for `O=C(O)CCC(=O)N1CCN(Cc2ccc3c(c2)Nc2nccnc2S3)CC1`, the melting point was in the range of 240 to 242 °C.

With `O=C(O)C1CN(Cc2ccc3c(c2)Nc2nccnc2S3)C1`, the melting point was in the range of 181 to 183 °C.

With `CCC1(CC(=O)O)CCN(Cc2ccc3c(c2)Nc2nccnc2S3)CC1`, the melting point is 225 to 226 °C.

In the case of `O=C(O)C=C1CC2(CCN(Cc3ccc4c(c3)Nc3nccnc3S4)CC2)C1`, the melting point was 238 to 241 °C.

For `O=C([O-])C12CC[N+](Cc3ccc4c(c3)Nc3nccnc3S4)(CC1)CC2`, the melting point lay in the range of 229 to 230 °C.

Take `O=C(O)C1C2CN(Cc3ccc4c(c3)Nc3nccnc3S4)CC21` (stereo not drawn): the melting point was greater than 275 °C.

As for `O=C(O)C(F)C1CCN(Cc2ccc3c(c2)Nc2nccnc2S3)CC1` (stereo not drawn), the melting point was 163 °C (dec.).

Consider `COCN1c2cc(CCl)ccc2Sc2nccnc21`, for which the melting point is 125 to 126 °C.

Take `CC1CN(Cc2ccc3c(c2)Nc2nccnc2S3)CC(C)C1CC(=O)O` (stereo not drawn): the melting point is 200 °C (dec.).

`O=C(O)CC1CCC2(CC1)CN(Cc1ccc3c(c1)Nc1nccnc1S3)C2`: the melting point was 145 °C (dec.).

As for `O=C(O)Cc1ccc(OCC2CCN(Cc3ccc4c(c3)Nc3nccnc3S4)CC2)cc1`, the melting point is 225 to 230 °C.

For `CC(CCC1CCN(CCc2ccc3c(c2)Nc2nccnc2S3)CC1)C(=O)O` (stereo not drawn), the melting point was 229 to 230 °C (dec.).

On to `O=C(O)CSC1CCN(Cc2ccc3c(c2)Nc2nccnc2S3)CC1`, for which the melting point was 148 to 152 °C.

`O=C(O)C=C1C2CCCC1CN(Cc1ccc3c(c1)Nc1nccnc1S3)C2`: the melting point was in the range of 253 to 255 °C.

`CC(C)(CCC1CCN(Cc2ccc3c(c2)Nc2nccnc2S3)CC1)C(=O)O` yielded a melting point of 180 to 185 °C.

In turn, `O=C(O)C1CCN(CCCc2ccc3c(c2)Nc2nccnc2S3)CC1` yielded a melting point of 262 to 264 °C.

On to `CC(CCC1CCN(C(=O)NCc2ccc3c(c2)Nc2nccnc2S3)CC1)C(=O)O` (stereo not drawn), for which the melting point lay within 94 to 98 °C.

The molecule `O=C(O)c1ccc(CC2CCN(Cc3ccc4c(c3)Nc3nccnc3S4)CC2)cc1` showed a melting point of 158 to 161 °C.

Molecule `O=C(O)CSCC1CCN(Cc2ccc3c(c2)Nc2nccnc2S3)CC1` registered a melting point of 110 to 113 °C.

The molecule `COCN1c2ccc(OC)cc2Nc2nccnc21` gave a melting point of 244 to 251 °C.

Turning to `CN1c2cc(C#N)ccc2Nc2nccnc21`, the melting point is greater than 275 °C.

For `CCOC(=O)/C=C/c1ccc2c(c1)Nc1nccnc1N2C`, the melting point fell in the range of 190 to 191 °C.

As to `OC/C=C/CN1c2ccccc2Nc2nccnc21`, the melting point lay within 197 to 199 °C.

With `CC(=O)NCc1ccc2c(c1)Nc1nccnc1N2C`, the melting point fell in the range of 247 to 249 °C.

As for `CCOC(=O)C#Cc1ccc2c(c1)Nc1nccnc1N2C`, the melting point was in the range of 232 to 235 °C.

With `Cc1cccc2c1Sc1nccnc1N2`, the melting point is 165 to 166 °C.

For `c1ccc(NCc2ccc3c(c2)Nc2nccnc2S3)nc1`, the melting point was 208 to 212 °C.

In turn, `c1cnc2c(n1)Nc1cc(CNCC3CCNCC3)ccc1S2` registered a melting point of 173 to 175 °C.

Regarding `Cc1cc(NCc2ccc3c(c2)Nc2nccnc2S3)cc(C)n1`, the melting point lay in the range of 230 to 235 °C.

With `CCOC(=O)CSc1ccc(NCc2ccc3c(c2)Nc2nccnc2S3)cn1`, the melting point fell in the range of 118 to 122 °C.
